This note sets out measurements from ChEMBL document CHEMBL5653615 (J Biol Chem, 2013).

Experiment [1] addresses T1, Mitogen-activated protein kinase kinase kinase kinase 2 (Homo sapiens) (UniProt Q12851).
T1 sequence (whole entry): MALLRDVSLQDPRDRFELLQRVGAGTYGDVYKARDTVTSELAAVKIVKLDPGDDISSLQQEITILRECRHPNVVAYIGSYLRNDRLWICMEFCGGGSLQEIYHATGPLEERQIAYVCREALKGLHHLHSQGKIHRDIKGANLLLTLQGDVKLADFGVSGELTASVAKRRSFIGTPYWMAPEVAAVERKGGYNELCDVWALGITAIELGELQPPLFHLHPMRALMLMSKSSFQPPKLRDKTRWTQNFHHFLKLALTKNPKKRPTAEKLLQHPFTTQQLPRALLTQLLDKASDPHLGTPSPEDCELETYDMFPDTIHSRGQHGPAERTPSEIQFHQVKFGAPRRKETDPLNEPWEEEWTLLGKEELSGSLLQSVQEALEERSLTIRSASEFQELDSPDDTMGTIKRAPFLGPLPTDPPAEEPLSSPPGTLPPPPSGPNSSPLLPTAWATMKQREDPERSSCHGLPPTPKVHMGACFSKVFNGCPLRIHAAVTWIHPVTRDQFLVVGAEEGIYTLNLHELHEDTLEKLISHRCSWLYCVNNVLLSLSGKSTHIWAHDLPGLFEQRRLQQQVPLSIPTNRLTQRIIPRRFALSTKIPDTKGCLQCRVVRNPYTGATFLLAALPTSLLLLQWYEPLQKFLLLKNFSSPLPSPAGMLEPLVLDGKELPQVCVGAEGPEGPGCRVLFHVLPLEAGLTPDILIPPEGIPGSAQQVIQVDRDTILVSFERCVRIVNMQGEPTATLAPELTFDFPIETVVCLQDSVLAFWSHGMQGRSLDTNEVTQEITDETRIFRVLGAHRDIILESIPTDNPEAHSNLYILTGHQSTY
The experiment is described as follows: Inhibition of human GCK at 500 nM by HotSpot assay relative to control.

Experiment [2] concerns the target Tyrosine-protein kinase JAK2 (Homo sapiens) (UniProt O60674). The experiment is described as follows: Inhibition of human JAK2 at 500 nM by HotSpot assay relative to control.
Experiment [3] concerns the target Ephrin type-A receptor 5 (Homo sapiens) (UniProt P54756). In words: Inhibition of human EPHA5 at 500 nM by HotSpot assay relative to control.
Experiment [4] concerns the target T2, Tyrosine-protein kinase Tec (Homo sapiens) (UniProt P42680).
T2 sequence (whole entry): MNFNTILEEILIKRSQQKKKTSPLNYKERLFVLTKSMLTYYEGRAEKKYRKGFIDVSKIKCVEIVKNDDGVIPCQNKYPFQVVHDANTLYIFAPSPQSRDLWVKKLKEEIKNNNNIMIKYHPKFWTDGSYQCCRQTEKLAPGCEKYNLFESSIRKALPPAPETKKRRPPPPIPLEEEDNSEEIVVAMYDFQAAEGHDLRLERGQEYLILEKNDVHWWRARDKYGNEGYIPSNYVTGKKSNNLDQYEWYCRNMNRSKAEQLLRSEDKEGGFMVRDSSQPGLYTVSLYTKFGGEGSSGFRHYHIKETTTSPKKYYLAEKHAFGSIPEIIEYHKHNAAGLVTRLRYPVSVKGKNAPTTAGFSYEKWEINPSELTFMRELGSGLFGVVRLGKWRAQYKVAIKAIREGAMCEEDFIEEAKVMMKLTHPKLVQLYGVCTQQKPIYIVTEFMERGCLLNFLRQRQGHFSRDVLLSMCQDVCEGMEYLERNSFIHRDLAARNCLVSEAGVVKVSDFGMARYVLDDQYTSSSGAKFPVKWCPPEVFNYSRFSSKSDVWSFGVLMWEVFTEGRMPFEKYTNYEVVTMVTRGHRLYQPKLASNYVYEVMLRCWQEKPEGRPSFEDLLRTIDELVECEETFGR
In words: Inhibition of human TEC at 500 nM by HotSpot assay relative to control.

The target in experiment [5] is Death-associated protein kinase 1 (Homo sapiens) (UniProt P53355). In words: Inhibition of human DAPK1 at 500 nM by HotSpot assay relative to control.
Experiment [6] addresses CDK9/Cyclin K (Homo sapiens) (UniProt P50750+O75909). In words: Inhibition of human CDK9/cyclin K at 500 nM by HotSpot assay relative to control. In kind it is protein-complex assay.
Experiment [7] deals with Cyclin-dependent kinase 1/cyclin B1 (Homo sapiens) (UniProt P06493+P14635). In words: Inhibition of human CDK1/cyclin B at 500 nM by HotSpot assay relative to control. In kind it is protein-complex assay.
The target in experiment [8] is Myosin light chain kinase 2, skeletal/cardiac muscle (Homo sapiens) (UniProt Q9H1R3). The experiment is described as follows: Inhibition of human MYLK2 at 500 nM by HotSpot assay relative to control.
In experiment [9] the target is Calcium/calmodulin-dependent protein kinase type II subunit gamma (Homo sapiens) (UniProt Q13555). In words: Inhibition of human CAMK2g at 500 nM by HotSpot assay relative to control.
Experiment [10] deals with T3, Tyrosine-protein kinase ZAP-70 (Homo sapiens) (UniProt P43403).
T3 sequence (whole entry): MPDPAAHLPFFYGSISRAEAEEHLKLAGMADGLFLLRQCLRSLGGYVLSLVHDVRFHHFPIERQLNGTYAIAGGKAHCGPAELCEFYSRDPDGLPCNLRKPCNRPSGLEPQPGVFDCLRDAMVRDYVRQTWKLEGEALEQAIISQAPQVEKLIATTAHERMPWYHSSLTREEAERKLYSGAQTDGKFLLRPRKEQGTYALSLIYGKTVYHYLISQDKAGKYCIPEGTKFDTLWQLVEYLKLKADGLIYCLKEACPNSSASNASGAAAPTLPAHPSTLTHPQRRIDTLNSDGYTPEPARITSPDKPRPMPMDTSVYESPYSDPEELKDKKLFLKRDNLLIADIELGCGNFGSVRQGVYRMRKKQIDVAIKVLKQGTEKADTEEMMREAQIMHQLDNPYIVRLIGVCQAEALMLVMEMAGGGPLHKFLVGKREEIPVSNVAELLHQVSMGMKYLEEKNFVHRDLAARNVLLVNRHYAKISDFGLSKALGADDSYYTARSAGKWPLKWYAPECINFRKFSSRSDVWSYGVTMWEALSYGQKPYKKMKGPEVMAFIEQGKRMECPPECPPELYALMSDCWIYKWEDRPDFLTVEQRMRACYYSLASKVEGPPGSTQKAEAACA
The experiment is described as follows: Inhibition of human ZAP70 at 500 nM by HotSpot assay relative to control.

The target in experiment [11] is Tyrosine-protein kinase BTK (Homo sapiens) (UniProt Q06187). The experiment is described as follows: Inhibition of human BTK at 500 nM by HotSpot assay relative to control.
Experiment [12] deals with Fibroblast growth factor receptor 4 (Homo sapiens) (UniProt P22455). The experiment is described as follows: Inhibition of human FGFR4 at 500 nM by HotSpot assay relative to control.
Experiment [13] concerns the target Mitogen-activated protein kinase 14 (Homo sapiens) (UniProt Q16539). In words: Inhibition of human MAPK14 at 500 nM by HotSpot assay relative to control.
Experiment [14] addresses Ephrin type-A receptor 2 (Homo sapiens) (UniProt P29317). In words: Inhibition of human EPHA2 at 500 nM by HotSpot assay relative to control.

Chain of Calcium/calmodulin-dependent protein kinase type II subunit gamma (Homo sapiens) (Q13555 whole entry): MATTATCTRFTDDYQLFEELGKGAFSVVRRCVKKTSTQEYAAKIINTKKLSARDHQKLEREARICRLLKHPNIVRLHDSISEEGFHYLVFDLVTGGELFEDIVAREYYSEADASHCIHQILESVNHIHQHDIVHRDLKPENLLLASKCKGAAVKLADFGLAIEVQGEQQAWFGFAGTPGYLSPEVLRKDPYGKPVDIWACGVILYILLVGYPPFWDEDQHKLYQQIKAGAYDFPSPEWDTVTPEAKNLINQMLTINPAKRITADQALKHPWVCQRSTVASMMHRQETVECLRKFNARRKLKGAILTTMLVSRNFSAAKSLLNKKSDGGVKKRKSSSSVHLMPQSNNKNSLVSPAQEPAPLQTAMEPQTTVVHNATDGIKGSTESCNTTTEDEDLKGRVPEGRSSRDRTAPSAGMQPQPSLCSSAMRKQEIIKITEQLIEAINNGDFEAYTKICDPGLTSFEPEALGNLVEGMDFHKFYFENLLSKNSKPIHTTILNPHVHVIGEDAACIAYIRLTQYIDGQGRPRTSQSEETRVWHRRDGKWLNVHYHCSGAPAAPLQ
Chain of Tyrosine-protein kinase BTK (Homo sapiens) (Q06187 whole entry): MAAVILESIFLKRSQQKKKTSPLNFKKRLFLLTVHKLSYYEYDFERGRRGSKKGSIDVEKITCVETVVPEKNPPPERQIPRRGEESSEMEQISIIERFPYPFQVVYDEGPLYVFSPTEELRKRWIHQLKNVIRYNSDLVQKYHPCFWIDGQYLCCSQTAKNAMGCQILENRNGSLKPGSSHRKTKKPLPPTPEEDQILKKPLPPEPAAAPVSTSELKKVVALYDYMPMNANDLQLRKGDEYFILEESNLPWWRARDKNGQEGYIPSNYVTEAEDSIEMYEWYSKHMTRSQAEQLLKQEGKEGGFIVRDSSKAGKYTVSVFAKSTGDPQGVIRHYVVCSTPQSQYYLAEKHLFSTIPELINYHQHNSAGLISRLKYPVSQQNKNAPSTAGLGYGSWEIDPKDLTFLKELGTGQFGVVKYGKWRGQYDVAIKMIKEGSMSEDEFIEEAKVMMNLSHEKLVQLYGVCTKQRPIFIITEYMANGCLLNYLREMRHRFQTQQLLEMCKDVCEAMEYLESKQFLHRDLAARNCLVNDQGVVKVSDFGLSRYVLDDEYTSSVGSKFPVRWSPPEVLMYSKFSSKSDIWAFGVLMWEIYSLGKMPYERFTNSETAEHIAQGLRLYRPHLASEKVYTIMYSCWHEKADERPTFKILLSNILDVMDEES
Chain of Myosin light chain kinase 2, skeletal/cardiac muscle (Homo sapiens) (Q9H1R3 whole entry): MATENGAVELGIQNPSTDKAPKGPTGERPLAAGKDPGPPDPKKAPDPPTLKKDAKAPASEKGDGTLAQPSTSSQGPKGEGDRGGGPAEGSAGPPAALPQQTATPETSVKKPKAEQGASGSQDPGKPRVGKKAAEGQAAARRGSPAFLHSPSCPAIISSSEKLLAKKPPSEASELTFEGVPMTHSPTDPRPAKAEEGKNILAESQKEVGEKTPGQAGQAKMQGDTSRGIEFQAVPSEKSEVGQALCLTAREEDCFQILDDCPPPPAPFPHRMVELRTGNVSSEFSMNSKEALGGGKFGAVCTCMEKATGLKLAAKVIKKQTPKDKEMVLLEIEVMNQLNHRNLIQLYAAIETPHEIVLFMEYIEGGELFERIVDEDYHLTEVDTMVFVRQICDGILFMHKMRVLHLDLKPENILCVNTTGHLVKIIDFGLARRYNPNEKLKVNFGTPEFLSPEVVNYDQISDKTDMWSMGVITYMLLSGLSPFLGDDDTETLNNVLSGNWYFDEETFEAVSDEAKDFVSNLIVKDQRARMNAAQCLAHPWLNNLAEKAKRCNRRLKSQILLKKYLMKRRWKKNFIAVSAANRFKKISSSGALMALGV
Chain of Ephrin type-A receptor 2 (Homo sapiens) (P29317 whole entry): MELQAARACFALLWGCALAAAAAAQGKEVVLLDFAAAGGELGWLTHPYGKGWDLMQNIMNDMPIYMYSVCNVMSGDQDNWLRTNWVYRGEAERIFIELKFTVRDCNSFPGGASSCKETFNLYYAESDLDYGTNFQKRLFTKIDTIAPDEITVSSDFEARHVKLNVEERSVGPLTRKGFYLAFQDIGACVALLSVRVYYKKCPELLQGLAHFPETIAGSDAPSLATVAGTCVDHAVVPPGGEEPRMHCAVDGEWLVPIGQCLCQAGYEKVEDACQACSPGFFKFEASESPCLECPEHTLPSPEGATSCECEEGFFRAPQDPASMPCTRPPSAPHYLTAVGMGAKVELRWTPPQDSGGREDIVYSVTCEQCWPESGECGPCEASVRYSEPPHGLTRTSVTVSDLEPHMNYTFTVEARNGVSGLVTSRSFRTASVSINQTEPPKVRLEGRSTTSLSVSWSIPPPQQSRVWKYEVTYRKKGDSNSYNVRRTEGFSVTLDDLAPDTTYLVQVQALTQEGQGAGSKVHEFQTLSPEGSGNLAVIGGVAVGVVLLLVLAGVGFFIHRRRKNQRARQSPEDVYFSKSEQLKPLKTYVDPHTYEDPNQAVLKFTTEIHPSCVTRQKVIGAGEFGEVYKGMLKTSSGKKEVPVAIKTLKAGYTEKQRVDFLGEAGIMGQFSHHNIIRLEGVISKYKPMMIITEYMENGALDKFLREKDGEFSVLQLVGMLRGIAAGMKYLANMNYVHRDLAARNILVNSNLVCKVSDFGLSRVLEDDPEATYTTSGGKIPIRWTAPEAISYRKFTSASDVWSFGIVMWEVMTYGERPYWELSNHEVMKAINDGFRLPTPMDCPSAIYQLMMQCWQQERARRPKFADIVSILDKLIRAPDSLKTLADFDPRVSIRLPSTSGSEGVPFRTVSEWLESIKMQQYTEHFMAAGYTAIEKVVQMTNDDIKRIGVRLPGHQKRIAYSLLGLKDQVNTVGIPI
Chain of Cyclin-dependent kinase 1/cyclin B1 (Homo sapiens) (P06493 whole entry, looked up): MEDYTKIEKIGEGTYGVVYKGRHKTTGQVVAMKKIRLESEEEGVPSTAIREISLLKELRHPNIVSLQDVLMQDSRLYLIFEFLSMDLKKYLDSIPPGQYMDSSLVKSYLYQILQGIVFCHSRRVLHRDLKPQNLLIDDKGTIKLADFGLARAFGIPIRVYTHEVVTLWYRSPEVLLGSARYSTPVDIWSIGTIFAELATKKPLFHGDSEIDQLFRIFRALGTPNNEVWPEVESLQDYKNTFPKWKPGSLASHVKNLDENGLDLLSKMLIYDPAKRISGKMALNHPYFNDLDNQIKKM
Chain of Cyclin-dependent kinase 1/cyclin B1 (Homo sapiens) (P14635 whole entry, looked up): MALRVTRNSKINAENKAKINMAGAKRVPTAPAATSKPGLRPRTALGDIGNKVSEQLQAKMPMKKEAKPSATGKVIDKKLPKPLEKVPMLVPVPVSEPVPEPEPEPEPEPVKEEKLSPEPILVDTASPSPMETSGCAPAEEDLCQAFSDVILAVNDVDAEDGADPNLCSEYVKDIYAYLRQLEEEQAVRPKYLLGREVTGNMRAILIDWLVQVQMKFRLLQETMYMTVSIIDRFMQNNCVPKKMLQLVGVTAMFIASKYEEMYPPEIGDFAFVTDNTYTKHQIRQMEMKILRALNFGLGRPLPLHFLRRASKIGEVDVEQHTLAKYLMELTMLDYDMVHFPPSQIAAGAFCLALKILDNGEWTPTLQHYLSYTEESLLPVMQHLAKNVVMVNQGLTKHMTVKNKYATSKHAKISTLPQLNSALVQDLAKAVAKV
Chain of Tyrosine-protein kinase JAK2 (Homo sapiens) (O60674 whole entry): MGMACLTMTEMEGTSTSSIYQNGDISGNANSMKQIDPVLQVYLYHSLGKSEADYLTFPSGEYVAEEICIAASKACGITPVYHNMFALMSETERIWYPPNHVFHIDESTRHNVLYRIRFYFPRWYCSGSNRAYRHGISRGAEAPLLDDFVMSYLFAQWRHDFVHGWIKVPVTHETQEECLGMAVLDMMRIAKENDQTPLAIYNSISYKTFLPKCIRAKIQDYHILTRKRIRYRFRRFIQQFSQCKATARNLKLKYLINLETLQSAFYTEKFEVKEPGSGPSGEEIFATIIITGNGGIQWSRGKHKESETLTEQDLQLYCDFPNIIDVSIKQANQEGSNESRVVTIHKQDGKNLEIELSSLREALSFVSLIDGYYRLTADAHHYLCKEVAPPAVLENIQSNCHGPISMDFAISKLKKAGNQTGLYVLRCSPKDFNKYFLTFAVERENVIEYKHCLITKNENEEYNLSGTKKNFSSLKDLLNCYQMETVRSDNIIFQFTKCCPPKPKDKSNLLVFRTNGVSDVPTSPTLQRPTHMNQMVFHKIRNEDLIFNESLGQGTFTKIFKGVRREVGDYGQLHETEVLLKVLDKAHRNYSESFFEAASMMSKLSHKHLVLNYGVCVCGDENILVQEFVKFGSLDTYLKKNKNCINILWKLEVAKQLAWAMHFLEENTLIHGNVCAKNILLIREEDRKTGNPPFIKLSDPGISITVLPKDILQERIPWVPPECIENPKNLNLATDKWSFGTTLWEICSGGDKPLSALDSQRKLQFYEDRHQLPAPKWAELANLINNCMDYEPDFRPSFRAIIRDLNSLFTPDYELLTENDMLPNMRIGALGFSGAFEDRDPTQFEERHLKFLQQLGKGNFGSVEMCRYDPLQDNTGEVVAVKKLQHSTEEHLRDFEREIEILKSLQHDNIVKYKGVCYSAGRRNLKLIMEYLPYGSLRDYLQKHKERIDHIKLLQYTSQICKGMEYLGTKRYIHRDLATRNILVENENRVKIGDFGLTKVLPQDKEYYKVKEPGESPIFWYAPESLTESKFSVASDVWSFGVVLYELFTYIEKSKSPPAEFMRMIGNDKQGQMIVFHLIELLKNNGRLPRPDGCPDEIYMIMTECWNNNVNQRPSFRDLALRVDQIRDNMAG
Chain of Mitogen-activated protein kinase 14 (Homo sapiens) (Q16539 whole entry): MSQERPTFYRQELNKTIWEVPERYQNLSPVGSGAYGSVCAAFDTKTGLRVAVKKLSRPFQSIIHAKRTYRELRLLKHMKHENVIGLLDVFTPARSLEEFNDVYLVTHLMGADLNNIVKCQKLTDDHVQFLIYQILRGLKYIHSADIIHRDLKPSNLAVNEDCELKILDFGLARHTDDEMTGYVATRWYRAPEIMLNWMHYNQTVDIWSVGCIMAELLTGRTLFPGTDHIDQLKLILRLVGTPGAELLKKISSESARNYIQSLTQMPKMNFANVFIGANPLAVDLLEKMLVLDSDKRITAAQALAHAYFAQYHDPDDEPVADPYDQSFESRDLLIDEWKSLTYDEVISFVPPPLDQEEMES

Regarding `Oc1n[nH]c2nnc(-c3c(-c4ccccc4)nn4ccccc34)cc12`, the inhibition in [1] is -5.76%; in [2], 2.36%; in experiment [3], -0.84%; in experiment [4] it was -3%; in experiment [5], 6.45%; in [6], -4.88%. Moreover, the inhibition was 9.98% in [7]; -2.71% in [8]; 2.06% in [9]; 5.7% in experiment [10]; 9.23% in experiment [11]; -3.29% in experiment [12]. For the same compound, the inhibition is -1.15% in [13] and -0.91% in experiment [14].
Take `Nc1n[nH]c2nnc(-c3c(-c4ccccc4)nn4ccccc34)cc12`: the inhibition was 1.42% in experiment [1]; 2.93% in [2]; -0.54% in experiment [3]; 3.88% in experiment [4]; 4.15% in experiment [5]; 1.48% in [6]. The inhibition in experiment [7] was 9.79%; in experiment [8] it was -0.61%; in experiment [9] it was 3.3%; in experiment [10], 9.86%; in experiment [11] it was 6.42%; in experiment [12], -3.98%. Further, the inhibition in experiment [13] was found to be 5.42%; in experiment [14], 1.69%.

Usually inhibition stands for the drop in the measured response relative to a control, in per cent.
